In US20240067662A1, “KRAS INHIBITORS” (Bristol-Myers Squibb Company, priority 2022, published 2024):

These compounds were tested against GMPPNP-loaded KRAS G12C (Homo sapiens, UniProt P01116, G12C) (assay: KRAS G12C RAF Disruption Assay (HTRF)). Conditions: recombinant GMPPNP-loaded KRAS G12C (5 nM), 20 min with compound; GST-RAF1 RBD (9 nM); HTRF signal; read-out: KRASG12C RAF Disruption Assay (IC50).
Format: biochemical
Description: KRAS^G12C RAF Disruption Assay
This is a functional assay that measures activity of compounds against KRAS-G12C^(ON), i.e., the active form of KRAS G12C. Recombinant GMPPNP-loaded KRAS G12C (5 nM) was treated with compound at room temperature for 20 minutes in assay buffer (50 mM Tris pH 7.5, 100 mM NaCl, 1 mM MgCl2, 1 mM DTT, 100ug/ml BSA). Recombinant GST-RAF1 RBD (9 nM) was added, and the reaction mixture was incubated for 20 minutes. SA-Tb (0.25 nM) was added, and the reaction mixture was incubated for 3 hours. HTRF signal was measured (PerkinElmer Envision), the signal ratio (λem 520/λem 495) was calculated, and IC50 values were calculated from the dose-response curve.

Sequence of GMPPNP-loaded KRAS G12C (P01116 1-188 isoform P01116-2 G12C): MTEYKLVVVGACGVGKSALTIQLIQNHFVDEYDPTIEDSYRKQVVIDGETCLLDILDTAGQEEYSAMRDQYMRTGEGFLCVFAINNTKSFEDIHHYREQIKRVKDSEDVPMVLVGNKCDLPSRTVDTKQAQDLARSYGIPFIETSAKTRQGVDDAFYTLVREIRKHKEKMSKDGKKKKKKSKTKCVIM

Question: Which IC50 does the source give for `C#Cc1c(F)ccc2cc(O)cc(-c3ncc4c(N5C[C@H]6CC[C@@H](C5)N6C(=O)/C(F)=C/c5cccc(OC)n5)nc(OC[C@@]56CCCN5C[C@H](F)C6)nc4c3F)c12` [Compound 17, (Z)-1-((1R, 5S)-3-(7-(8-ethynyl-7-fluoro-3-hydroxynaphthalen-1-yl)-8-fluoro-2-(((2R, 7aS)-2-fluorotetrahydro-1H-pyrrolizin-7a(5H)-yl)methoxy)pyrido[4,3-d]pyrimidin-4-yl)-3,8-diazabicyclo[3.2.1]octan-8-yl)-2-fluoro-3-(6-methoxypyridin-2-yl)prop-2-en-1-one] here?
Answer: 2600 nM

Question: How did the IC50 turn out when `C#Cc1c(F)ccc2cc(O)cc(-c3ncc4c(N5CCN(C(=O)/C(F)=C/c6cccnn6)CC5)nc(OC[C@@]56CCCN5C[C@H](F)C6)nc4c3F)c12` [Example 55, (Z)-1-(4-(7-(8-ethynyl-7-fluoro-3-hydroxynaphthalen-1-yl)-8-fluoro-2-(((2R, 7aS)-2-fluorotetrahydro-1H-pyrrolizin-7a(5H)-yl)methoxy)pyrido[4,3-d]pyrimidin-4-yl)piperazin-1-yl)-2-fluoro-3-(pyridazin-3-yl)prop-2-en-1-one] was run?
Answer: 2 nM

Question: Which IC50 does the source give for `C#Cc1cccc2cccc(-c3ncc4c(N5CCN(C(=O)/C(F)=C/c6ccccn6)CC5)nc(OC[C@@]56CCCN5C[C@H](F)C6)nc4c3F)c12` [Example 29, (Z)-1-(4-(7-(8-ethynylnaphthalen-1-yl)-8-fluoro-2-(((2R, 7aS)-2-fluorotetrahydro-1H-pyrrolizin-7a(5H)-yl)methoxy)pyrido[4,3-d]pyrimidin-4-yl)piperazin-1-yl)-2-fluoro-3-(pyridin-2-yl)prop-2-en-1-one] here?
Answer: 100 nM

Question: With `CN1CCC[C@H]1COc1nc(N2CCN(C(=O)/C(F)=C/c3ccccn3)[C@@H](CC#N)C2)c2cnc(-c3cccc4ccc(F)cc34)c(F)c2n1` [Example 36, 2-((S)-1-((Z)-2-fluoro-3-(pyridin-2-yl)acryloyl)-4-(8-fluoro-7-(7-fluoronaphthalen-1-yl)-2-(((S)-1-methylpyrrolidin-2-yl)methoxy)pyrido[4,3-d]pyrimidin-4-yl)piperazin-2-yl)acetonitrile] as the compound, how does the IC50 read?
Answer: 150 nM

Question: How did the IC50 turn out when `N#CC[C@H]1CN(c2nc(OC[C@@]34CCCN3C[C@H](F)C4)nc3c(F)c(-c4cc(F)ccc4C(F)F)ncc23)CCN1C(=O)/C(F)=C/c1nccs1` [Example 43, 2-((S)-4-(7-(2-(difluoromethyl)-5-fluorophenyl)-8-fluoro-2-(((2R, 7aS)-2-fluorotetrahydro-1H-pyrrolizin-7a(5H)-yl)methoxy)pyrido[4,3-d]pyrimidin-4-yl)-1-((Z)-2-fluoro-3-(thiazol-2-yl)acryloyl)piperazin-2-yl)acetonitrile] was run?
Answer: 1100 nM

Question: Which IC50 does the source give for `C#Cc1cccc2cccc(-c3ncc4c(N(C)C5CCN(C(=O)/C(F)=C/c6ccccn6)C5C)nc(OC[C@@]56CCCN5C[C@H](F)C6)nc4c3F)c12` (single isomer, unassigned) [Example 74 trans isomer 1] here?
Answer: 2.5 nM

Question: For `C#Cc1cccc2cccc(-c3ncc4c(N(C)C5CCN(C(=O)/C(F)=C/c6nccs6)CC5)nc(OC[C@@]56CCCN5C[C@H](F)C6)nc4c3F)c12` [Compound 132, (Z)-1-(4-((7-(8-ethynylnaphthalen-1-yl)-8-fluoro-2-(((2R, 7aS)-2-fluorotetrahydro-1H-pyrrolizin-7a(5H)-yl)methoxy)pyrido[4,3-d]pyrimidin-4-yl)(methyl)amino)piperidin-1-yl)-2-fluoro-3-(thiazol-2-yl)prop-2-en-1-one], which IC50 is on record?
Answer: 16800 nM

Question: For `N#Cc1c(N)sc2c(F)ccc(-c3ncc4c(N5CCN(C(=O)/C(F)=C/c6ccccn6)CC5)nc(OC[C@@]56CCCN5C[C@H](F)C6)nc4c3F)c12` [Compound 121, 2-amino-7-fluoro-4-(8-fluoro-4-(4-((Z)-2-fluoro-3-(pyridin-2-yl)acryloyl)piperazin-1-yl)-2-(((7aS)-2-fluorotetrahydro-1H-pyrrolizin-7a(5H)-yl)methoxy)pyrido[4,3-d]pyrimidin-7-yl)benzo[b]thiophene-3-carbonitrile], which IC50 is on record?
Answer: 8 nM
